Key:
PPARγ = target: T1, PPARγ (Homo sapiens, UniProt P37231); assay: PPARγ binding assay (SPA); parameters: made in house; host or cells: HEK293 (cell lysates)
T1 sequence (P37231 1-505): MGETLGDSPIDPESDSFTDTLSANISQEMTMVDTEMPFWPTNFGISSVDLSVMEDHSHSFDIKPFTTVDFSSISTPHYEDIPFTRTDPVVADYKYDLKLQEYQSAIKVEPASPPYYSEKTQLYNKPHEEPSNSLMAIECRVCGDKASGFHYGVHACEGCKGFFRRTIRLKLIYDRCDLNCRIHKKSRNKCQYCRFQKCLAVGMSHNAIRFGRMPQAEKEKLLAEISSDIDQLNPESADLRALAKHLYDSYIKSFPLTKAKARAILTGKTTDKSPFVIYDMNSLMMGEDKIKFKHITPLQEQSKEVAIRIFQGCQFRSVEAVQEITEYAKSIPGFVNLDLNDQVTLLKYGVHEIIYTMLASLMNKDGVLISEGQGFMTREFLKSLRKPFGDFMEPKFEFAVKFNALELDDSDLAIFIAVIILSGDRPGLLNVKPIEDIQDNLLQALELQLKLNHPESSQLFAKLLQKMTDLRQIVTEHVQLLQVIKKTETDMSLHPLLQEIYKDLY
T1 sequence (P19793 1-462 partner): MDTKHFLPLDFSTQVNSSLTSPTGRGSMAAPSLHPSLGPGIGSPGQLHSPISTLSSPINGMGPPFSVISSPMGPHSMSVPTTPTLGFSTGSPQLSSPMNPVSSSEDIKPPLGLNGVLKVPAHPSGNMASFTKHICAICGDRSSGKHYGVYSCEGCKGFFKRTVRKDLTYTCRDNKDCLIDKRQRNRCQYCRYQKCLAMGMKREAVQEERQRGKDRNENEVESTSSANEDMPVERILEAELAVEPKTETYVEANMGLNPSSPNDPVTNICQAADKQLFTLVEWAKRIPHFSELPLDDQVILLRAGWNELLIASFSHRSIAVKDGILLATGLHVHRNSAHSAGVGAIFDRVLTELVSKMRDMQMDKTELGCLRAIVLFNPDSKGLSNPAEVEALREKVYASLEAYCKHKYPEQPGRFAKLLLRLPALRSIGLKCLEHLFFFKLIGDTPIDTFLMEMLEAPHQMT
Protocol: (§1) Because GPR40 is known to be activated by ligands to PPARγ, the exemplified compound is examined in PPARα, PPARδ, and PPARγ binding and functional assays to determine the selectivity of the compound of Example 1 for GPR40.
(§2) Binding affinities of the compound for the PPAR α, δ, and γ receptors are assessed using Scintillation Proximity Assay (SPA) technology. Biotinylated oligonucleotide Direct Repeat 2 (DR2) is used for binding the receptors to Yttrium silicate streptavidin-coated SPA beads. PPAR α, δ, γ and retinoid X receptor (RXR) α are over expressed in HEK293 cells, and cell lysates containing the specific receptors are used in the individual assays. The DR2 is attached to the SPA beads over a 30 minute period in a binding buffer containing 10 mM HEPES pH 7.8, 80 mM KCl, 0.5 mM MgCl2, 1 mM DTT, 0.5% 3[(3-cholamidopropyl)dimethylammonio]-propanesulfonic acid (CHAPS), and 4.4% bovine serum. […] Non-specific binding is determined in the presence of 10,000 nM of the unlabeled PPAR α/δ dual agonist reference compound for the alpha and delta receptor assays and the PPARγ agonist reference compound for the gamma receptor assay. The binding reaction (100 μl per well in a 96 well [Costar 3632] plate) is incubated for 10 h and counted disintegration per minutes (dpm) on a Wallac Microbeta. Receptor binding affinity (IC50) for the compound is determined by fitting an 11 point concentration-response curve with a 4-parameter logistic equation. Ki is determined from the IC50 using the Cheng-Prussoff equation and Kd determined by saturation binding. […]

PPARα = target: T2, PPARα (Homo sapiens, UniProt Q07869); assay: PPARα binding assay (SPA)
T2 construct: made in house; host or cells: HEK293 (cell lysates)
T2 sequence (Q07869 1-468): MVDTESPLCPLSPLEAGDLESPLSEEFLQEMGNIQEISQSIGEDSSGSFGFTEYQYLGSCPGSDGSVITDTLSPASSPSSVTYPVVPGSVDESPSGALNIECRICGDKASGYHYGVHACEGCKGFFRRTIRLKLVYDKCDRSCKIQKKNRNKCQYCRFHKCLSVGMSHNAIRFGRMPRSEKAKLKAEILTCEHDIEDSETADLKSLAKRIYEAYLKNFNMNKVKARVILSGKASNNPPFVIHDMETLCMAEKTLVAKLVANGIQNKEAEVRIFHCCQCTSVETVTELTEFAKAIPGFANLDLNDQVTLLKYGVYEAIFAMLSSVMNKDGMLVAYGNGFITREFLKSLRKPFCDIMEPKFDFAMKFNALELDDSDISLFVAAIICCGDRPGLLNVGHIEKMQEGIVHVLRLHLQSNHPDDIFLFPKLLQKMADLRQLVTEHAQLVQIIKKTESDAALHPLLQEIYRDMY
T2 sequence (P19793 1-462 partner): T1 sequence (P19793 1-462 partner)
Protocol: as §1, §2

human GPR40 = human GPR40 (Homo sapiens, UniProt O14842); assay: cell-based
[1] = tested up to 30 μM, read-out: relative IC50
[2] = with 10 μM concentrations of test compound

Sequence of human GPR40 (O14842 whole entry): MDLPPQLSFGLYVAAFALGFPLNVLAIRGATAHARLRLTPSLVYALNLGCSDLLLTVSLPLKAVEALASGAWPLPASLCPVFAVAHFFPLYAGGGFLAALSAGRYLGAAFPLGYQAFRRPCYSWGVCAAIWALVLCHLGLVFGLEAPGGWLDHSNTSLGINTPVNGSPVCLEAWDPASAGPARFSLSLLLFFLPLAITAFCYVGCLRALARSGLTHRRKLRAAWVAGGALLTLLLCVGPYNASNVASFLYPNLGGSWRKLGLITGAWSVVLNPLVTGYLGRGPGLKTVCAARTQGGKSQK

With `CC#C[C@@H](CC(=O)O)c1ccc(OCc2ccc(CN3CCCc4cccc(OC)c43)s2)cc1` [Example 1, (3S)-3-[4-[[5-[(8-Methoxy-3,4-dihydro-2H-quinolin-1-yl)methyl]-2-thienyl]methoxy]phenyl]hex-4-ynoic acid] the binding (PPARγ; concentrations up to 10 μM) was “no binding is detected”, the IC50 (PPARγ; [1]) was greater than 10000 nM and the PPAR binding values (PPARγ; [2]) was “greater than 1000 nM”. The binding (PPARα; concentrations up to 10 μM) was “no binding is detected”, the IC50 (PPARα; [1]) was greater than 10000 nM and the PPAR binding values (PPARα; [2]) was “greater than 1000 nM”. For the same compound, the EC50 (human GPR40; EC50, HEK293 cells over expressing human GPR40, 0.1% fatty acid free BSA, FLIPR) was 152 nM and the EC50 (human GPR40; EC50 value for the Calcium Flux Primary assay, HEK293 cells over expressing human GPR40, bound stated) was less than 1000 nM.

From patent US8431706B2, “1,2,3,4-tetrahydroqinoline derivative useful for the treatment of diabetes” (Eli Lilly and Company, priority 2011, dated 2013)
